Measured values published in ChEMBL document CHEMBL1159190, “Determination of the active conformation of 6-amino--[(4-diphenylmethyl-1-piperazinyl)methyl-9H-purine]-9-ethanol: a positive inotropic agent” (1993).

What was measured:
Rattus norvegicus [1] = species: Rattus norvegicus; experiment: Contractile force determined in rat atria; assay type: functional
Rattus norvegicus [2] = species: Rattus norvegicus; experiment: Functional refractory period (FRP) determined in rat atria
[3] = Rattus norvegicus, read-out: EC25

| SMILES | EC25 (Rattus norvegicus [1]; [3]) [µM] | EC25 (Rattus norvegicus [2]; [3]) [µM] | EC25 (Rattus norvegicus [1]) [µM] | EC25 (Rattus norvegicus [2]) [µM] |
| --- | --- | --- | --- | --- |
| Nc1ncnc2c1ncn2C[C@@]1(O)CC[C@H]2CN(C(c3ccccc3)c3ccccc3)CCN2C1 | 15 | 15 |  |  |
| Nc1ncnc2c1ncn2C[C@]1(O)CC[C@H]2CN(C(c3ccccc3)c3ccccc3)CCN2C1 | 6.5 | 1.8 |  |  |
| Nc1ncnc2c1ncn2CC(O)CN1CCN(C(c2ccccc2)c2ccccc2)CC1 (configuration not stated) | 0.5 | 0.2 |  |  |
| Nc1ncnc2c1ncn2C1CCCC(N2CCN(C(c3ccccc3)c3ccccc3)CC2)C1O (cis isomer) |  |  | 20 | 17 |
| Nc1ncnc2c1ncn2C1CCCC(N2CCN(C(c3ccccc3)c3ccccc3)CC2)C1O (stereo in doubt) |  |  | 1.5 | 0.9 |
| Nc1ncnc2c1ncn2C1CCCC(N2CCN(C(c3ccccc3)c3ccccc3)CC2)C1O (trans isomer) |  |  | 1.2 | 9 |
